Measured values reported in US6043248A, “Alpha-substituted pyrimidine-thioalkyl and alkylether compounds as inhibitors of viral reverse transcriptase” (priority 1997, dated 2000).
“And” between values parts separate entries of the source, which are not always exact repeats. Equal values may be shown once. Where a name gives a salt, the structure may show the parent alone.

What was measured:
[1] = target: T1, viral reverse transcriptase (Wild Type) (Human immunodeficiency virus type 1 group M subtype B, UniProt P04585); assay: inhibition of viral reverse transcriptase (Wild Type), cell free assay; assay type: biochemical; conditions: for IC50: read-out: IC50 (Table II, Wild Type)
T1 construct: Viral reverse transcriptase (Wild Type) is found in extracts from bacterial clones; made in house; host or cells: Escherichia coli
Text: The utility of the pyrimidine-thioalkyl and alkylether anti-AIDS compounds of Formula IA of this invention can be determined by their ability to inhibit viral reverse transcriptase, an enzyme essential for human immunodeficiency virus replication. This enzyme has characteristics which differentiate it from other known cellular polymerases and it is a unique enzyme which is not found in uninfected cells. Viral reverse transcriptase (Wild Type) is found in extracts from bacterial clones prepared according to the procedure described in AIDS Virus Reverse Transcriptase defined by high level expression in Escherichia coli, EMBO J. 6:3133-3137 (1987). P236L viral reverse transcriptase is obtained by PNAS 90: 4713-4717 (1993). Inhibition of this enzyme is determined in a cell free assay which measures the level of radioactive precursors incorporated into DNA. Extracts prepared according to the procedure of Science, 1125-1129 (1981) are incubated in a mixture of inhibitor, 20 mM dithiothreitol, 60 mM sodium chloride, 0.05% NP-40, 10 mM magnesium chloride, 50 mM Tris pH 8.3, 10 μM [^35 S]-labeled deoxynuleoside-5'-triphosphate, 10 μg/ml RNA template (poly rC or poly rG) and 5 μg/ml DNA primer (oligo dG or oligo dT) for 30 minutes at 37° C. Incorporation of radio-labeled percursor is determined by spotting aliquots of the reaction mixture on DE81 paper, washing the papers to remove unincorporated percursor, drying and determining counts. The results (IC50 means the concentration, in μM of drug, required to inhibit the reverse transcriptase activity (P236L and Wild Type) to the extent of 50%) of various assay(s) are combined and reported as % inhibition and/or IC50 (calculated) in Table I (P236L) and Table II (Wild Type).

[2] = target: T2, P236L viral reverse transcriptase (Human immunodeficiency virus type 1 group M subtype B, UniProt P04585, P823L); assay: inhibition of viral reverse transcriptase (P236L), cell free assay; assay type: biochemical; conditions: IC50 (Table I, P236L), 30 minutes at 37° C.
T2 construct: P236L viral reverse transcriptase is obtained by PNAS 90: 4713-4717 (1993); made in house
Outline: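 E. coli-expressed wild-type or P236L RT extracts incubated with inhibitor 30 min at 37 °C in Tris pH 8.3 with MgCl₂, NaCl, DTT, NP-40, 10 μM [35S]-dNTP, poly rC/rG template and oligo dG/dT primer. Incorporated label counted on DE81 paper; reported as % inhibition and/or IC50.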

| SMILES | IC50 [2] | IC50 ([1]; 30 minutes at 37° C.) | other results |
| --- | --- | --- | --- |
| N#Cc1cc(N)nc(SCc2ccc3ccccc3c2)n1 [Example 277, 6-amino-2-(2-naphthylmethyl)thio-4-pyrimidine carbonitrile] | 500 nM | – | inhibition at 10 µM [1]: 84% |
| Nc1cc(C(F)(F)F)nc(SCc2ccc3ccccc3c2)n1 [Example 270, 4-amino-6-trifluoromethyl-2-(2-naphthylmethyl)thio-pyrimidine] | 290 nM | 434 nM | – |
| CC(Sc1nc(N)cc(Cl)n1)c1cc(C2CCCCC2)ccn1 (stereo not drawn) [Example 257] | 500 nM | – | inhibition at 10 µM [1]: 78% |
| COC(=O)/C=C/CSc1nc(N)cc(Cl)n1 [Example 193, (E)-4-[(4-Amino-6-chloro-2-pyrimidinyl)thio]-2-butenoic acid methyl ester] | 930 nM | 5250 nM | – |
| Cc1cc2cc(C(C)Sc3nc(N)cc(Cl)n3)nc(Cl)c2o1 (stereo not drawn) [Example 240, 4-Amino-6-chloro-2-(1-(7-chloro-2-methylfuro[2,3c]pyridin-5-yl)ethyl)thio-pyrimidine] | 116 nM | 381 nM | – |
| CC(Sc1nc(N)cc(Cl)n1)c1cc2c(cn1)OCC2(C)C (stereo not drawn) [Example 248, 4-Amino-6-chloro-2-(1-(3,3-dimethyl-2,3-dihydrofuro[2,3c]pyridine-5-yl)ethyl)thio-pyrimidine] | 18 nM | 72 nM | – |
| CC(C)c1ccnc(C(C)Sc2nc(N)cc(Cl)n2)c1 (stereo not drawn) [Example 223, 4-Amino-6-chloro-2-(1-(4-(1-methylethyl)-2-pyridyl)ethyl)thio-pyrimidine] | 68 nM | 60 nM | – |
| C=C(C)c1ccnc(C(C)Sc2nc(N)cc(Cl)n2)c1 (stereo not drawn) [Example 221, 4-Amino-6-chloro-2-(1-(4-(1-methylethenyl)-2-pyridyl)ethyl)thio-pyrimidine] | 39 nM | 19 nM | – |
| C[C@H](Sc1nc(N)cc(Cl)n1)c1cc2ccoc2cn1 [Example 299, (S)-(-)-4-Amino-6-chloro-2-(1-(furo[2,3c]pyridin-5-yl)ethylthio)-pyrimidine] | 22 nM | 20 nM | – |
| Nc1cc(Cl)nc(SC/C=C/C(=O)N2CCOCC2)n1 [Example 198, (E)-4-[4-[(4-amino-6-chloro-2-pyrimidinyl)thio]-1-oxo-2-butenyl]morpholine] | 10000 nM | – | inhibition at 50 µM ([1]; @ 50 μM): 69% |
| CCC(CC)c1ccnc(C(C)Sc2nc(N)cc(Cl)n2)c1 (stereo not drawn) [Example 261, 4-amino-6-chloro-2-(1-(4-(1-ethylpropyl)-2-pyridyl)-ethyl)thio-pyrimidine] | 70 nM | 59 nM | – |
| Cc1ccnc(C(C)Sc2nc(N)cc(Cl)n2)c1 (stereo not drawn) [Example 215, 4-Amino-6-chloro-2-(1-(4-methyl-2-pyridyl)ethyl)thio-pyrimidine hydrochloride] | 33 nM | 17 nM | – |
| CC(Sc1nc(N)cc(Cl)n1)c1cc2c(C(F)(F)F)coc2cn1 (stereo not drawn) [Example 294] | 104 nM | 233 nM | – |
| Cc1coc2cnc(C(C)Sc3nc(N)cc(C(F)(F)F)n3)cc12 (stereo not drawn) [Example 296, 4-Amino-6-trifluoromethyl-2-(1-(3-methyl-furo[2,3c]pyridin-5-yl)ethylthio)-pyrimidine] | 79 nM and 83 nM and 75 nM | 54 nM and 111 nM | – |
| COC(=O)/C=C(\C)CSc1nc(N)cc(Cl)n1 [Example 208, (E)-4-[(4-Amino-6-chloro-2-pyrimidinyl)thio]-3-methyl-2-butenoic acid methyl ester] | 1000 nM | – | inhibition at 10 µM [1]: 79% |
| CCc1coc2cnc(C(C)Sc3nc(N)cc(Cl)n3)cc12 (stereo not drawn) [Example 249, 4-Amino-6-chloro-2-(1-(3-ethylfuro[2,3c]pyridine-5-yl)ethyl)thio-pyrimidine] | 10 nM | 23 nM | – |
| CC(C)Oc1ccnc(C(C)Sc2nc(N)cc(Cl)n2)c1 (stereo not drawn) [Example 263] | 100 nM | – | inhibition at 1 µM ([1]; @ 1 μM): 86% |
| N#Cc1cc(Cl)nc(SCc2ccc3ccccc3c2)n1 [Example 276, 6-chloro-2-(2-naphthylmethyl)thio-4-pyrimidine carbonitrile] | 50000 nM | – | IC50 (Table II, Wild Type) ([1]; 30 minutes at 37° C.): INACTIVE |
